{
  "source": "patent US8877707B2",
  "about": "“Inhibitors of HCV NS5A” (Presidio Pharmaceuticals, Inc., priority 2010, dated 2014)",
  "data": [
    {"test_system": "HCV genotype 1b replicon in Huh 7 cells", "assay": "HCV replicon assay (1b_Huh-Luc/Neo-ET cell line, luciferase readout)", "type": "cell-based", "details": "Hepatitis C virus; Table 1; genotype 1b replicon, Huh 7 cells, 72 h, luciferase; read-out: Inhibition of HCV genotype 1b", "description": "Biological activity of the compounds of the invention was determined using an HCV replicon assay. The 1b_Huh-Luc/Neo-ET cell line persistently expressing a bicistronic genotype 1b replicon in Huh 7 cells was obtained from ReBLikon GMBH. This cell line was used to test compound inhibition using luciferase enzyme activity readout as a measurement of compound inhibition of replicon levels.\nOn Day 1 (the day after plating), each compound is added in triplicate to the cells. Plates incubated for 72 h prior to running the luciferase assay. Enzyme activity was measured using a Bright-Glo Kit (cat. number E2620) manufactured by Promega Corporation. The following equation was used to generate a percent control value for each compound. % Control=(Average Compound Value/Average Control)*100\nThe EC50 value was determined using GraphPad Prism and the following equation: Y=Bottom+(Top−Bottom)/(1+10^((Log IC50−X)*HillSlope))\nEC50 values of compounds are repeated several times in the replicon assay.", "units": {"EC50": "nM"}, "values": [
      {"smiles": "CNC(=O)N[C@@H](C(=O)N1CCC[C@H]1c1ncc(-c2ccc(-c3ccc4cc(-c5c[nH]c([C@@H]6CCCN6C(=O)[C@@H](NC(=O)OC)C(C)C)n5)ccc4n3)cc2)[nH]1)c1ccccc1", "note": "[compound 31]", "EC50": "< 1"},
      {"smiles": "COC(=O)N[C@H](C(=O)N1CCC[C@H]1c1nc(-c2cnc3cc(-c4ccc(-c5cnc([C@@H]6CCCN6C(=O)[C@H](NC(=O)OC)c6ccccc6)[nH]5)cc4)ccc3c2)c[nH]1)C(C)C", "note": "[compound 32]", "EC50": "< 1"},
      {"smiles": "CCNC(=O)N[C@@H](C(=O)N1CCC[C@H]1c1ncc(-c2ccc(-c3ccc4cc(-c5c[nH]c([C@@H]6CCCN6C(=O)[C@@H](NC(=O)OC)C(C)C)n5)ccc4n3)cc2)[nH]1)c1ccccc1", "note": "[compound 33]", "EC50": "< 1"},
      {"smiles": "COC(=O)N[C@H](C(=O)N1CCC[C@H]1c1nc(-c2ccc3nc(-c4ccc(-c5cnc([C@@H]6CCCN6C(=O)[C@H](NC(=O)NC6CC6)c6ccccc6)[nH]5)cc4)ccc3c2)c[nH]1)C(C)C", "note": "[compound 34]", "EC50": "< 1"},
      {"smiles": "COC(=O)N[C@H](C(=O)N1CCC[C@H]1c1ncc(-c2ccc(-c3ccc4cc(-c5c[nH]c([C@@H]6CCCN6C(=O)[C@H](NC(=O)OC(C)(C)C)c6ccccc6)n5)ccc4n3)cc2)[nH]1)C(C)C", "note": "[compound 35]", "EC50": "< 1"},
      {"smiles": "CNC(=O)N[C@@H](C(=O)N1CCC[C@H]1c1nc(-c2ccc3nc(-c4ccc(-c5cnc([C@@H]6CCCN6C(=O)[C@@H](NC(=O)OC)C(C)C)[nH]5)cc4)ccc3c2)c[nH]1)c1ccccc1", "note": "[compound 36]", "EC50": "< 1"},
      {"smiles": "CCNC(=O)N[C@@H](C(=O)N1CCC[C@H]1c1nc(-c2ccc3nc(-c4ccc(-c5cnc([C@@H]6CCCN6C(=O)[C@@H](NC(=O)OC)C(C)C)[nH]5)cc4)ccc3c2)c[nH]1)c1ccccc1", "note": "[compound 37]", "EC50": "< 1"},
      {"smiles": "COC(=O)N[C@H](C(=O)N1CCC[C@H]1c1ncc(-c2ccc(-c3ccc4cc(-c5c[nH]c([C@@H]6CCCN6C(=O)[C@H](NC(=O)NC6CC6)c6ccccc6)n5)ccc4n3)cc2)[nH]1)C(C)C", "note": "[compound 38]", "EC50": "< 1"},
      {"smiles": "COC(=O)N[C@H](C(=O)N1CCC[C@H]1c1ncc(-c2ccc(-c3ccc4cc(-c5c[nH]c([C@@H]6CCCN6C(=O)[C@@H](NC(=O)OC)C6CCOCC6)n5)ccc4n3)cc2)[nH]1)C(C)C", "note": "[compound 39]", "EC50": "< 1"},
      {"smiles": "COC(=O)N[C@H](C(=O)N1CCC[C@H]1c1ncc(-c2ccc(-c3ccc4cc(-c5c[nH]c([C@@H]6CCCN6C(=O)[C@@H](NC(=O)OC)[C@@H](C)OC)n5)ccc4n3)cc2)[nH]1)C(C)C", "note": "[compound 40]", "EC50": "< 1"},
      {"smiles": "COC(=O)N[C@@H](C)C(=O)N1CCC[C@H]1c1nc(-c2ccc3nc(-c4ccc(-c5cnc([C@@H]6CCCN6C(=O)[C@@H](NC(=O)OC)C(C)C)[nH]5)cc4)ccc3c2)c[nH]1", "note": "[compound 41]", "EC50": "< 1"},
      {"smiles": "COC(=O)N[C@H](C(=O)N1CCC[C@H]1c1nc(-c2ccc3nc(-c4ccc(-c5cnc([C@@H]6CCCN6C(=O)[C@@H](NC(=O)OC)C6CCOCC6)[nH]5)cc4)ccc3c2)c[nH]1)C(C)C", "note": "[compound 42]", "EC50": "< 1"},
      {"smiles": "COC(=O)N[C@H](C(=O)N1CCC[C@H]1c1nc(-c2ccc3nc(-c4ccc(-c5cnc([C@@H]6CCCN6C(=O)[C@@H](NC(=O)OC)[C@@H](C)OC)[nH]5)cc4)ccc3c2)c[nH]1)C(C)C", "note": "[compound 43]", "EC50": "< 1"},
      {"smiles": "COC(=O)N[C@@H](C)C(=O)N1CCC[C@H]1c1ncc(-c2ccc(-c3ccc4cc(-c5c[nH]c([C@@H]6CCCN6C(=O)[C@@H](NC(=O)OC)C(C)C)n5)ccc4n3)cc2)[nH]1", "note": "[compound 44]", "EC50": "< 1"},
      {"smiles": "COC(=O)N[C@H](C(=O)N1CCC[C@H]1c1ncc(-c2ccc(-c3ccc4cc(-c5c[nH]c([C@@H]6CCCN6C(=O)[C@H](NC(=O)OC)c6ccccc6)n5)cnc4c3)cc2)[nH]1)C(C)C", "note": "[compound 45]", "EC50": "< 1"},
      {"smiles": "COC(=O)N[C@H](C(=O)N1CCC[C@H]1c1nc(-c2ccc3cc(-c4ccc(-c5cnc([C@@H]6CCCN6C(=O)[C@@H](NC(=O)OC)C6CCOCC6)[nH]5)cc4)ccc3c2)c[nH]1)C(C)C", "note": "[compound 46]", "EC50": "< 1"},
      {"smiles": "COC(=O)N[C@H](C(=O)N1CCC[C@H]1c1ncc(-c2ccc(-c3ccc4cc(-c5c[nH]c([C@@H]6CCCN6C(=O)[C@@H](NC(=O)OC)C6CCOCC6)n5)ccc4c3)cc2)[nH]1)C(C)C", "note": "[compound 47]", "EC50": "< 1"},
      {"smiles": "COC(=O)N[C@H](C(=O)N1CCC[C@H]1c1ncc(-c2ccc(-c3ccc4cc(-c5c[nH]c([C@@H]6CCCN6C(=O)[C@H](NC(=O)OC)c6ccccc6)n5)ccc4c3)nc2)[nH]1)C(C)C", "note": "[compound 48]", "EC50": "< 1"},
      {"smiles": "COC(=O)N[C@H](C(=O)N1CCC[C@H]1c1nc(-c2cnc3cc(-c4ccc(-c5cnc([C@@H]6CCCN6C(=O)[C@@H](NC(=O)OC)C6CCOCC6)[nH]5)cc4)ccc3c2)c[nH]1)C(C)C", "note": "[compound 49]", "EC50": "< 1"},
      {"smiles": "COC(=O)N[C@H](C(=O)N1CCC[C@H]1c1ncc(-c2ccc(-c3ccc4cc(-c5c[nH]c([C@@H]6CCCN6C(=O)[C@@H](NC(=O)OC)C6CCOCC6)n5)cnc4c3)cc2)[nH]1)C(C)C", "note": "[compound 50]", "EC50": "< 1"},
      {"smiles": "COC(=O)N[C@H](C(=O)N1CCC[C@H]1c1nc(-c2ccc3cc(-c4ccc(-c5cnc([C@@H]6CCCN6C(=O)[C@@H](NC(=O)OC)C6CCOCC6)[nH]5)cn4)ccc3c2)c[nH]1)C(C)C", "note": "[compound 51]", "EC50": "< 1"},
      {"smiles": "COC(=O)N[C@H](C(=O)N1CCC[C@H]1c1ncc(-c2ccc(-c3ccc4cc(-c5c[nH]c([C@@H]6CCCN6C(=O)[C@@H](NC(=O)OC)C6CCOCC6)n5)ccc4c3)nc2)[nH]1)C(C)C", "note": "[compound 52]", "EC50": "< 1"},
      {"smiles": "COC(=O)N[C@H](C(=O)N1CCC[C@H]1c1nc(-c2ccc3nc(-c4ccc(-c5cnc([C@@H]6CCCN6C(=O)[C@@H](NC(=O)OC)C(C)C)[nH]5)nc4)ccc3c2)c[nH]1)C(C)C", "note": "[compound 53]", "EC50": "< 1"},
      {"smiles": "COC(=O)N[C@@H](C(=O)N1CCC[C@H]1c1nc(-c2ccc3nc(-c4ccc(-c5cnc([C@@H]6CCCN6C(=O)[C@H](NC(=O)OC)c6ccccc6)[nH]5)nc4)ccc3c2)c[nH]1)c1ccccc1", "note": "[compound 54]", "EC50": "< 1"},
      {"smiles": "COC(=O)N[C@H](C(=O)N1CCC[C@H]1c1nc(-c2ccc3cc(-c4ccc(-c5cnc([C@@H]6CCCN6C(=O)[C@H](NC(=O)OC)c6ccccc6)[nH]5)cn4)ccc3c2)c[nH]1)C(C)C", "note": "[compound 56]", "EC50": "< 1"},
      {"smiles": "COC(=O)N[C@H](C(=O)N1CCC[C@H]1c1nc(-c2cnc3cc(-c4ccc(-c5cnc([C@@H]6CCCN6C(=O)[C@@H](NC(=O)OC)C(C)C)[nH]5)cc4F)ccc3c2)c[nH]1)C(C)C", "note": "[compound 57]", "EC50": "< 1"},
      {"smiles": "COC(=O)N[C@H](C(=O)N1CCC[C@H]1c1ncc(-c2ccc(-c3ccc4cc(-c5c[nH]c([C@@H]6CCCN6C(=O)[C@H](NC(=O)OC)c6ccccc6)n5)cnc4c3)c(F)c2)[nH]1)C(C)C", "note": "[compound 58]", "EC50": "< 1"},
      {"smiles": "COC(=O)N[C@H](C(=O)N1CCC[C@H]1c1ncc(-c2ccc(-c3ccc4cc(-c5c[nH]c([C@@H]6CCCN6C(=O)[C@@H](NC(=O)OC)C6CCOCC6)n5)cnc4c3)c(F)c2)[nH]1)C(C)C", "note": "[compound 59]", "EC50": "< 1"},
      {"smiles": "COC(=O)N[C@H](C(=O)N1CCC[C@H]1c1ncc(-c2ccc(-c3ccc4cc(-c5c[nH]c([C@@H]6CCCN6C(=O)[C@H](NC(=O)OC)c6ccccc6)n5)cnc4c3)nc2)[nH]1)C(C)C", "note": "[compound 60]", "EC50": "< 1"},
      {"smiles": "COC(=O)N[C@H](C(=O)N1CCC[C@H]1c1ncc(-c2ccc(-c3ccc4cc(-c5c[nH]c([C@@H]6CCCN6C(=O)[C@@H](NC(=O)OC)C6CCOCC6)n5)cnc4c3)nc2)[nH]1)C(C)C", "note": "[compound 61]", "EC50": "< 1"},
      {"smiles": "COC(=O)N[C@H](C(=O)N1CCC[C@H]1c1nc(-c2cnc3cc(-c4ccc(-c5cnc([C@@H]6CCCN6C(=O)[C@@H](NC(=O)OC)C6CCOCC6)[nH]5)cn4)ccc3c2)c[nH]1)C(C)C", "note": "[compound 62]", "EC50": "< 1"},
      {"smiles": "COC(=O)N[C@H](C(=O)N1CCC[C@H]1c1nc(-c2ccc3cc(-c4ccc(-c5cnc([C@@H]6CCCN6C(=O)[C@H](NC(=O)OC)c6ccccc6)[nH]5)nc4)ccc3c2)c[nH]1)C(C)C", "note": "[compound 63]", "EC50": "< 1"},
      {"smiles": "COC(=O)N[C@H](C(=O)N1CCC[C@H]1c1nc(-c2ccc3cc(-c4ccc(-c5cnc([C@@H]6CCCN6C(=O)[C@H](NC(=O)OC)c6ccccc6)[nH]5)cc4F)ccc3c2)c[nH]1)C(C)C", "note": "[compound 64]", "EC50": "< 1"},
      {"smiles": "COC(=O)N[C@H](C(=O)N1CCC[C@H]1c1nc(-c2ccc3cc(-c4ccc(-c5cnc([C@@H]6CCCN6C(=O)[C@@H](NC(=O)OC)C6CCOCC6)[nH]5)cc4F)ccc3c2)c[nH]1)C(C)C", "note": "[compound 65]", "EC50": "< 1"},
      {"smiles": "COC(=O)N[C@H](C(=O)N1CCC[C@H]1c1nc(-c2ccc3cc(-c4ccc(-c5cnc([C@@H]6CCCN6C(=O)[C@@H](NC(=O)OC)C(C)C)[nH]5)cc4F)ccc3c2)c[nH]1)C(C)C", "note": "[compound 66]", "EC50": "< 1"},
      {"smiles": "COC(=O)N[C@H](C(=O)N1CCC[C@H]1c1ncc(-c2ccc(-c3ccc4cc(-c5c[nH]c([C@@H]6CCCN6C(=O)[C@H](NC(=O)OC)c6ccccc6)n5)ccc4c3)c(F)c2)[nH]1)C(C)C", "note": "[compound 67]", "EC50": "< 1"},
      {"smiles": "COC(=O)N[C@H](C(=O)N1CCC[C@H]1c1ncc(-c2ccc(-c3ccc4cc(-c5c[nH]c([C@@H]6CCCN6C(=O)[C@@H](NC(=O)OC)C6CCOCC6)n5)ccc4c3)c(F)c2)[nH]1)C(C)C", "note": "[compound 68]", "EC50": "< 1"},
      {"smiles": "COC(=O)N[C@H](C(=O)N1CCC[C@H]1c1nc(-c2ccc3cc(-c4ccc(-c5cnc([C@@H]6CCCN6C(=O)[C@H](NC(=O)OC)c6ccccc6)[nH]5)cc4C)ccc3c2)c[nH]1)C(C)C", "note": "[compound 69]", "EC50": "< 1"},
      {"smiles": "COC(=O)N[C@H](C(=O)N1CCC[C@H]1c1ncc(-c2ccc(-c3ccc4cc(-c5c[nH]c([C@@H]6CCCN6C(=O)[C@H](NC(=O)OC(C)(C)C)c6ccccc6)n5)ccc4n3)cn2)[nH]1)C(C)C", "note": "[compound 70]", "EC50": "< 1"}
    ]}
  ]
}
